Data reported in PMC12765074, “Mechanistic insights into enterocin C targeting the undecaprenyl phosphate recycling protein BacA” (The Journal of Biological Chemistry, 2025).

Test system: EntC1
Assay: ITC, EntC1
Assay type: binding
Conditions: titration of EntC2 with EntC1

## CC[C@H](C)[C@H](NC(=O)CNC(=O)[C@H](CCCCN)NC(=O)[C@H](C)NC(=O)[C@H](CC(C)C)NC(=O)CNC(=O)[C@H](C)NC(=O)[C@@H](NC(=O)[C@H](Cc1ccccc1)NC(=O)[C@H](CC(=O)O)NC(=O)[C@H](Cc1ccc(O)cc1)NC(=O)[C@H](C)NC(=O)[C@@H]1CCCN1C(=O)[C@H](CCC(N)=O)NC(=O)[C@H](CC(C)C)NC(=O)[C@H](Cc1c[nH]c2ccccc12)NC(=O)[C@@H]1CCCN1C(=O)[C@H](CC(C)C)NC(=O)[C@H](Cc1c[nH]c2ccccc12)NC(=O)[C@H](CCCCN)NC(=O)CNC(=O)[C@@H]1CCCN1C(=O)CN)C(C)C)C(=O)NCC(=O)N[C@@H](CCCCN)C(=O)N[C@@H](CCC(=O)O)C(=O)NCC(=O)N[C@@H](CC(N)=O)C(=O)N[C@@H](CCCCN)C(=O)N[C@@H](CC(N)=O)C(=O)N[C@@H](CCCCN)C(=O)N[C@@H](Cc1c[nH]c2ccccc12)C(=O)N[C@@H](CCCCN)C(=O)N[C@@H](CC(N)=O)C(=O)N[C@H](C(=O)O)C(C)C (single isomer, unassigned) [EntC2]
  binding to EntC1 (ITC): No binding
